Assays:
[1] = Acute intraperitoneal toxicity and behavior in mice (Example 14); settings: mouse, in vivo, ip
male mice (ICR-Simonsen) = experiment: as above; settings: for No. of Deaths: 5 mice
[2] = tested on: reserpine-induced hypothermia; experiment: Reversal of reserpine-induced hypothermia in mice (potential antidepressant activity); assay type: in vivo; settings: Mus musculus, po; minimum effective dose, p.o., statistically significant reversal of hypothermia induced by reserpine 5mg/kg i.p.; body temperature 1-4 hours post-drug; read-out: MED
Experimental: REVERSAL OF RESERPINE-INDUCED HYPOTHERMIA IN MICE
The assay was used to evaluate the potential antidepressant activity of compounds of this invention.
Male Swiss-Webster Institute for Cancer Research mice weighing 18-24g were utilized for these experiments. The mice, having been in holding quarters for a minimum of 5 days, were placed in plexi-glass cages 17cm by 20cm with sanicel bedding. Five of the 6 groups of 10 mice each, received reserpine, 5mg/kg, i.p. The reserpine (lOmg) was dissolved in 0.06ml glacial acetic acid and 20ml water. The sixth group was not pretreated. Two hours later the mice were dosed with either water or test compound at various doses. The group which had not received the reserpine pretreatment was also dosed with water; consequently a postive and a negative control group were present. The test compounds were administered orally (p.o.) in logarithmically spaced doses.
One hour after the oral dosing, body temperatures were taken from 8 mice from each group utilizing a Yellow Springs-Telethermometer unit. Repeated determinations of body temperature occured at 2, 3 and 4 hours post-drug.
The percent reversal of the reserpine-induced hypothermia was determined according to the formula: [formula] and subjected to an analysis of variance (X = average body temperature of mice from the group). Statistically significant reversal of the reserpine-induced hypothermia was used as a criterion for determining the minimum effective dose (MED) of the compound.

tonic extensor seizure = experiment: Anticonvulsant activity - maximal electroshock test; assay type: in vivo, mice; settings: Mus musculus, ip, 0.25 h; i.p. fifteen minutes prior to transcorneal electroshock (50 mamp. 0.2sec); antagonism of tonic extensor seizure
Experimental: ANTICONVULSANT ACTIVITY - MAXIMAL ELECTROSHOCK TEST This assay was used to evaluate the anticonvulsant activity of compounds of this invention. Groups of 10 male Hilltop ICR mice were utilized for these experiments. At fifteen minutes prior to testing, drug or vehicle was administered intraperitoneally (i.p.). At the appropriate time the mice were subjected to a transcorneal electroshock generated by a stimulator (Woodbury, L.A. and Davenport, V.D.: Design and Use Of A New Electroshock Seizure Apparatus And Analysis Of Factors Altering Seizure Threshold And Pattern. Arch. Intern. Pharmacodyn. Ther. 92: 97-107,1952). The shock (50 […]) elicited three types of seizures: tonic extension, tonic flexion and clonic seizures. For the purposes of this test, the antagonism of the tonic extensor seizure was utilized as an endpoint. The quantal data accumulated from several doses of a test compound were utilized to determine an ED50 (Litchfield, J.F. and Wilcoxon, F.: A Simplified Method of Evaluating Dose-effect Experiments). J. Pharmacol. Exp. Ther. 96: 99-113, 1949).

jaw opening reflex = experiment: Centrally acting skeletal muscle relaxant assay - cat linguomandibular reflex preparation; assay type: in vivo; settings: Felis catus, iv, anesthetized cats; percent reduction of the jaw opening reflex
Experimental: This assay is used to assess the centrally acting skeletal muscle relaxant properties of compounds of this invention.
Mongrel cats weighing 2-Skg were anesthetized with phenobarbital sodium, 180mg/kg, i.p. The anesthetized cat was placed in a stereotaxic headholder, shaved, and the femoral artery and vein were cannulated. The cannula from the fermoral artery was connected to a Statham Model P-23 AC Transducer in order to monitor blood pressure. The femoral vein was utilized for the administration of drugs.
The cat was placed in a prone position and two electrodes, consisting of wound clips soldered to wires, were attached bilaterally to the base of the tongue. These leads were then connected to a Grass S8 stimulator. A Grass FT-03 Transducer was placed beneath the jaw. […] Signals from the transducers were recorded on a Beckman Polygraph.
The stimulator was set to deliver single pulses of 2.5msec duration. […] Once the response had ben determined to be stable, drug solution was administered i.v. in logarithmically spaced doses. […]
The percent reduction of the jaw opening reflex was utilized for determining the activity of the drug. Comparisons of the relative block of the reflex, the steepness of the dose response curve, and the cardiovascular sequel were evaluated and an ED50 determined.

Structure (SMILES)	minimal effective dose [2]	further results
COC(=O)NC1=NCC(c2ccccc2)CN1.O=C(O)/C=C\C(=O)O (centres unmarked) [2-Methoxycarbonylamino-5-phenyl-1,4,5,6-tetrahydropyrimidine, maleate]	–	LD50 [1]: 26.5 mg/kg; No. of Deaths (male mice (ICR-Simonsen); Dose 10 mg/kg i.p.): 0; No. of Deaths (male mice (ICR-Simonsen); Dose 15 mg/kg i.p.): 0; No. of Deaths (male mice (ICR-Simonsen); Dose 20 mg/kg i.p.): 0; No. of Deaths (male mice (ICR-Simonsen); Dose 25 mg/kg i.p.): 0; No. of Deaths (male mice (ICR-Simonsen); Dose 27.5 mg/kg i.p.): 4; No. of Deaths (male mice (ICR-Simonsen); Dose 30 mg/kg i.p.): 5; onset of effects (male mice (ICR-Simonsen); after drug administration, i.p., mice): less than five minutes; surviving animals appeared normal (male mice (ICR-Simonsen); after drug, i.p., mice): 90 to 120 min; Behavioral effects observed (male mice (ICR-Simonsen); i.p., 10-30 mg/kg, observed for 2 hours post drug): decreased motor activity, ataxia exophthalmia piloerection increased induced activity, dysporea (increased depth and decreased rate of respiration), lacrimation twitching, moderate clonic convulsions and death
CCCOC(=O)NC1=NC(c2ccccc2)CCN1 (centres unmarked) [2-n-propoxycarbonylamino-4-phenyl-1,4,5,6-tetrahydropyrimidine]	10 mg/kg	ED50 (tonic extensor seizure): 30 mg/kg
COC(=O)NC1=NC(c2ccccc2C(F)(F)F)CCN1 (centres unmarked) [4|H|2-CF3|H|CH3OC(O)-, 2-methoxycarbonylamino-4-(2-trifluoromethylphenyl)-1,4,5,6-tetrahydropyrimidine]	1 mg/kg	ED50 (tonic extensor seizure): 44 mg/kg
COC(=O)NC1=NC(c2cccc(OC)c2)CCN1 (centres unmarked) [4|H|3-CH3O|H|CH3OC(O)]	10 mg/kg	–
COC(=O)NC1=NC(c2ccc(F)cc2)CCN1 (centres unmarked) [4|H|4-F|H|CH3COC(O)-, 2-methoxycarbonylamino-4-(4-fluorophenyl)-1,4,5,6-tetrahydropyrimidine]	1 mg/kg	–
COC(=O)NC1=NC(c2ccccc2)CCN1 (centres unmarked) [4|H|H|H|CH3OC(O)-, 2-methoxycarbonylamino-4-phenyl-1,4,5,6-tetrahydropyrimidine]	2.5 mg/kg	–
NC1=NC(c2ccccc2)CCN1 (centres unmarked) [4|H|H|H|H, 2-amino-4-phenyl-1,4,5,6-tetrahydropyrimidine]	10 mg/kg	–
COC(=O)NC1=NCC(c2ccc(Cl)cc2Cl)CN1 (centres unmarked) [5|2-Cl|4-Cl|H|CH3OC(O)-, 2-methoxycarbonylamino-5-(2,4-dichlorophenyl)-1,4,5,6-tetrahydropyrimidine]	1 mg/kg	ED50 (jaw opening reflex): 25 mg/kg
CC(C)OC(=O)NC1=NCC(c2c(Cl)cccc2Cl)CN1 (centres unmarked) [5|2-Cl|6-Cl|H|(CH3)2CHOC(O)-, 2-i-propoxycarbonylamino-5-(2,6-dichlorophenyl)-1,4,5,6-tetrahydropyrimidine]	1 mg/kg	–
COC(=O)NC1=NCC(c2c(Cl)cccc2Cl)CN1 (centres unmarked) [5|2-Cl|6-Cl|H|CH3OC(O)-, 2-methoxycarbonylamino-5-(2,6-dichlorophenyl)-1,4,5,6-tetrahydropyrimidine]	0.15 mg/kg	–
COC(=O)NC1=NCC(c2ccccc2Cl)CN1 (centres unmarked) [5|H|2-Cl|H|CH3OC(O)-, 2-methoxycarbonylamino-5-(2-chlorophenyl)-1,4,5,6-tetrahydropyrimidine]	10 mg/kg	ED50 (tonic extensor seizure): 42 mg/kg
CCCOC(=O)NC1=NCC(c2cccc(Br)c2)CN1 (centres unmarked) [5|H|3-Br|H|CH3(CH)2OC(O)-, 2-n-propoxycarbonylamino-5-(3-bromophenyl)-1,4,5,6-tetrahydropyrimidine]	1 mg/kg	–
COC(=O)NC1=NCC(c2cccc(Br)c2)CN1 (centres unmarked) [5|H|3-Br|H|CH3OC(O)-, 2-methoxycarbonylamino-5-(3-bromophenyl)-1,4,5,6-tetrahydropyrimidine]	1 mg/kg	–
NC1=NCC(c2cccc(Br)c2)CN1 (centres unmarked) [5|H|3-Br|H|H-, 2-amino-5-(3-bromophenyl)-1,4,5,6-tetrahydropyrimidine]	10 mg/kg	ED50 (tonic extensor seizure): 47 mg/kg
COC(=O)NC1=NCC(c2cccc(OC)c2)CN1 (centres unmarked) [5|H|3-MeO|H|CH3OC(O)-, 2-methoxycarbonylamino-5-(3-methoxyphenyl)-1,4,5,6-tetrahydropyrimidine]	10 mg/kg	ED50 (jaw opening reflex): 7 mg/kg
COC(=O)NC1=NCC(c2ccc(C(C)C)cc2)CN1 (centres unmarked) [5|H|4-(CH3)2CH-|H|CH3OC(O), 2-methoxycarbonylamino-5-(4-isopropylphenyl)-1,4,5,6-tetrahydropyrimidine]	–	ED50 (tonic extensor seizure): 55 mg/kg
COC(=O)NC1=NCC(c2ccc(F)cc2)CN1 (centres unmarked) [5|H|4-F|H|CH3OC(O)-, 2-methoxycarbonylamino-5-(4-fluorophenyl)-1,4,5,6-tetrahydropyrimidine]	0.15 mg/kg	ED50 (tonic extensor seizure): 100 mg/kg
COC(=O)NC1=NCC(c2ccccc2)CN1C (stereo not drawn) [5|H|H|CH3|CH3OC(O)-, l-Methyl-2-methoxycarbonylamino-5-phenyl-1,4,5,6-tetrahydropyrimidine]	0.04 mg/kg	–
CC(C)OC(=O)NC1=NCC(c2ccccc2)CN1 (centres unmarked) [5|H|H|H|(CH3)2CHOC(O)-, 2-isopropoxycarbonylamino-5-phenyl-1,4,5,6-tetrahydropyrimidine]	0.04 mg/kg	–
CCOC(=O)NC1=NCC(c2ccccc2)CN1 (centres unmarked) [5|H|H|H|CH3CH2OC(O)-, 2-ethoxycarbonylamino-5-phenyl-1,4,5,6-tetrahydropyrimidine]	0.04 mg/kg	–
COC(=O)NC1=NCC(c2ccccc2)CN1 (centres unmarked) [5|H|H|H|CH3OC(O)-, 2-methoxycarbonylamino-5-phenyl-1,4,5,6-tetrahydropyrimidine]	0.0006 mg/kg	–
NC1=NCC(c2ccccc2)CN1 (centres unmarked) [5|H|H|H|H, 2-amino-5-phenyl-1,4,5,6-tetrahydropyrimidine]	0.01 mg/kg	–
